According to patent US20240415152A1, “METHODS FOR IMPROVING HEALTH OF FISH, USE OF ZINC OXIDE PARTICLES FOR THE PREPARATION OF FISH FEED, METHODS FOR PREPARING FISH FEED FOR FISH, AND FISH FEED THEREOF” (City University of Hong Kong, priority 2023, published 2024):

Experiments:
Assay type in all cases: in vivo, Trachinotus ovatus
Conditions in all cases: dietary 60 mg/kg, 5 weeks
golden pompano = test: Growth performance (final weight, weight gain rate) after 5-week dietary exposure
Method: Fish exposure experiments were conducted in strict accordance with the Chinese Guidelines for Ethical Review of Laboratory Animal Welfare (GBIT 35892-2018). Three groups of golden pompanos (initial body wet weight of about 6 g) were randomly chosen and split after 14 days of acclimatization. There were three replicated net cages in Mirs Bay (Nanao, Shenzhen, China) for each group, with 30 fish in each duplicate. Each day, the experimental meals were given two-time (8:00 h, and 16:00 h) to golden pompano until satiation during the 5-week exposure experiment. The water was 29-32° C., dissolved oxygen 6.8-7.2 mg/L, and salinity 28-30‰ during dietary exposure.
After dietary exposure, all fish were starved for 24 h, and the ice-water was used to anesthetize fish from different groups. To avoid sample contamination during sampling, we first thoroughly disinfected the sampling table with 75% alcohol, and then spread a disposable tablecloth and disinfected it twice. All metal dissection tools were high-temperature sterilization. Each treatment group shared one set of dissection tools. After each set of samples, the disposable tablecloth was replaced and thoroughly sterilized for the following group sampling. The tubes (sterile and enzyme-free) for the temporary storage of samples were purchased from Corning. […] Fish's weights were measured immediately. […]

[1] = test system: intestinal tissue of fish; test: In situ spatial quantitative analysis of intestinal tissue (HE sections, tissue cytometry)
Method: After dietary exposure, all fish were starved for 24 h, and the ice-water was used to anesthetize fish from different groups. To avoid sample contamination during sampling, we first thoroughly disinfected the sampling table with 75% alcohol, and then spread a disposable tablecloth and disinfected it twice. All metal dissection tools were high-temperature sterilization. Each treatment group shared one set of dissection tools. After each set of samples, the disposable tablecloth was replaced and thoroughly sterilized for the following group sampling. The tubes (sterile and enzyme-free) for the temporary storage of samples were purchased from Corning. Inc. The alcohol lamp was kept on throughout the sampling process. Fish's weights were measured immediately. All individual fish per net were swabbed using 75% alcohol. After that, we used a 1 mL disposable syringe to collect the blood from the caudal vertebra of the fish. The blood was quickly drawn into the pre-cooled 1.5 mL-centrifuge tubes (RNA-free tube). Then, all the blood samples were put in the 4° C. refrigerator for 24 h, and then centrifuged (4° C., 3000 r/min, 10 min) to obtain the serum samples for biochemical analysis. The blood-drawn fish were quickly dissected to obtain the gill, intestine content, intestine, liver, and muscle. Each replicated sample contained 6 fish, resulting in 18 fish per treatment group (with 3 replicates). All these samples were immediately frozen in liquid nitrogen and transferred to −80° C. refrigerator using dry ice, except the intestine for histomorphological study. For histomorphological analysis of the intestine, the tissues (3 fish per treatment group) were firstly dissected in the medical ice sheet. After 0.9% NaCl solution quick washing, the intestine tissues were fixed in the 4% paraformaldehyde (BL539A, Biosharp) for 48 h. The fixed intestinal samples were carefully transferred to 75% alcohol for long-term preservation.
The fixed intestine tissues were removed from the fixed liquid and then carefully trimmed with the ventilation cupboard. The trimmed tissues with different labels were placed in the dehydration box in the dehydrator (Donatello, DIAPATH) to dehydrate with gradient alcohol. The process was as follows: 75% alcohol 4 h, 85% alcohol 2 h, 90% alcohol 2 h, 95% alcohol 1 h, anhydrous ethanol I 30 min, anhydrous ethanol II 30 min, alcohol benzene 5˜10 min, xylene II 5˜10 min, 65° C. melting paraffin I1 h, 65° C. melting paraffin II 1 h, 65° C. melting paraffin Ill 1 h. The tissues were removed from the dehydration box and placed in the embedding frame of the embedding machine (JB-P5, Wuhan Junjie Electronics Co., Ltd), subsequently the frozen platform at −20° C. was used to cool the dewatering box. The solidified wax block was removed from the embedded frame and placed on the pathology slicer (RM2016, Shanghai Leica Instrument Co., Ltd) to obtain 4 μm slice thickness. The tissues were then flattened when the slice floated on the 40° C. warm water of the spreading machine. […]
In situ spatial quantitative identification of HE sections were imaged and analyzed by tissue cytometry. Briefly, the images were obtained on the TissueFAXS quantitative imaging system (TissueGnostics, Vienna, Austria). […] The scanned files were imported into the strataquest professional organization single-cell quantitative analysis system (v.7.0.1.176) for image processing and analysis. […]

[2] = test system: intestinal microorganism of golden pompano; test: Bacterial 16S ribosomal RNA gene sequencing of intestine content (ASV-based)
From the text: DNA samples from the intestine content (only mucosa without the muscularis) were isolated using the MP Fast® SPIN DNA Kit. Each replicated sample contained 6 fish, resulting in 18 fish per treatment group. DNA extracts were amplified using primers (338F_806R) for the V3-V4 region of the 16S rRNA gene. Procedures for the DNA extracts and PCR amplification and then illuminma Miseq sequencing are described as follows.
DNA extraction and PCR amplification: The quality of DNA extraction was determined using 1% agarose gel electrophoresis, and DNA concentration and purity were determined using NanoDrop2000. […] The 16S rRNA gene V3-V4 variable region was amplified by PCR using 338F (5′-[…]-3′) and 806R (5′-[…]-3′). The amplification procedure was as follows: 95° C. pre-denaturation for 3 min, 27 cycles (95° C. denaturation for 30 s, 55° C. annealing for 30 s, 72° C. extension for 30 s), followed by 72° C. stable extension for 10 min and finally storage at 4° C. (PCR instrument: ABI GeneAmp® Model 9700). FastPfu buffer 4 μL, 2.5 mM dNTPs 2 μL, upstream primer (5 uM) 0.8 μL, downstream primer (5 uM) 0.8 μL, TransStart FastPfu DNA polymerase 0.4 μL, template DNA 10 ng, ddH2O make up to 20 μL. 3 replicates for each sample.
Illumina Miseq sequencing: PCR products from the same sample were mixed and recovered using a 2% agarose gel. Fluorometer (Promega, USA) was used to quantify the recovered products. Library construction was performed using NEXTflex™ Rapid DNA-Seq Kit (Bioo Scientific, USA): (1) splice linkage; (2) removal of splice self-linked fragments using magnetic bead screening; (3) enrichment of library template using PCR amplification; (4) recovery of PCR products by magnetic beads to obtain the final library. Sequencing was performed using Illumina's Miseq PE300 platform (Shanghai Meiji Biomedical Technology Co., Ltd.).
For Illumina Miseq PE300, products were pooled by sequencing equimolar and paired-end sequences (2×300) to obtain the raw data. Please see description for raw data stitching and optimization. After the PE reads obtained by MiSeq sequencing were split, the double-ended reads were first quality controlled and filtered according to the sequencing quality. Meanwhile, according to the overlapping relationship between double-ended reads, the optimized data after quality control splicing were obtained. […]
Raw data stitching and optimization: Fastp (version 0.20.0) software was used for quality control of the original sequencing sequence, and flash was used (version 1.2.7) software for splicing: (1) filter the bases with a mass value of less than 20 at the tail of reads and set a 50 bp window. […]

SMILES: O=S(=O)([O-])[O-].[Zn+2] [ZnSO4, zinc sulphate]
- WGR (weight gain rate) (golden pompano): 268.78%
- final weight (golden pompano; initial body wet weight about 6 g): 22.30 g
- intestinal villus area [1]: reduced
- villus height distribution (changes in the fish villi intestine) [1]: 0.05-0.33 μm
- area of basal layer of fish intestine ([1]; compared with the other groups): reduced
- total number of goblet cells ([1]; compared with the other groups): reduced
- villus/crypt ratio (intestinal/crypt ratio) ([1]; compared with the other groups): reduced
- genus-level differential microorganisms in fish intestine [2]: significantly enriched Photobacterium and Mycoplasma
- main intestinal microorganisms at phylum level [2]: Proteobacteria, Firmicutes and Cyanobacteria
- unique reads of microorganisms at ASV level (Venn diagram) [2]: 808
- unique reads of microorganisms at genus level (Venn diagram) [2]: 137
